Reference: patent US20100041089A1, “IMPROVED METHOD FOR DETECTING CHEMICAL […]” (priority 2006, published 2010)

Tested on: yeast genes (expressed mRNA)
Test: DNA chip measurement of expressed mRNA of yeast genes after culture with a toxic chemical substance
Type: cell-based, Saccharomyces cerevisiae S288C
Method: Yeast (Saccharomyces cerevisiae S288C (a SUC2mal mel gap2 CUP1)) were cultured at 25° C. on YPD medium (yeast extract 1%, polypeptone 2%, glucose 2%). One of toxic chemical substances was added to the cell at logarithmic growth phase, and the cell was further cultured for two hours. Cell was cultured without any chemical substance in the same condition, and was used as a control. Concentrations of the chemical substances were defined to inhibit the growth of the yeast but not lead to death.
After the completion of cultivation, the culture was centrifuged to collect the cells. To the cells, sodium acetate buffer (50 mM sodium acetate, 10 mM EDTA, 1% SDS) was added, and the mixture was shaken at 65° C. for five minutes, followed by returning to room temperature, and obtaining the supernatant, which procedure was repeated two times. To the supernatant, ½ amount of a solution of phenol/chloroform (1:1) was added, and the mixture was centrifuged to give a supernatant, an equal amount of chloroform was added, and the mixture was centrifuged to give a supernatant. To the supernatant, an equal amount of isopropanol containing 0.3 M sodium acetate was added, and the mixture was allowed to stand at room temperature for 30 minutes, after which the mixture was centrifuged to give sediment of the whole RNAs. Seventy % ethanol was added to the sediment, and the mixture was again centrifuged to give sediment, which was then dried and dissolved in water. mRNA was isolated from the whole RNAs as followings. In view of the fact that a poly A chain is attached to the 3′ terminus of mRNA, a polynucleotide having a poly T structure which was immobilized on the surface of latex beads was used to trap the mRNA, and then the mRNA was washed and eluted with spine column (Oligotex-dT30<Super>mRNA Purification Kit, Takara). Reverse transcription of the mRNA was conducted with a reverse transcriptase (Super Script II Reverse Transcriptase; catalogue No. 18064-014, GibcoBRL) using fluorescence-labeled nucleotides to give cDNAs that were introduced with Cy3-dUTP or Cy5-dUTP during the reverse transcription.
The labeled cDNAs were dissolved in TE buffer (10 mM Tris-HCl/1 mM EDTA, pH 8.0), and the solution was dropped on the DNA chip containing the whole genes of yeast (DNA Chip Research Inc. Japan) so that the cDNAs were hybridized on the DNA chip at 65° C. for over 12 hours. The fluoresces intensity of the DNA chip was read with a scanner, and the ratio relative to the fluorescence intensity resulting from the absence of chemical substance was estimated as the following, which is shown in Tables 1 to 9.
In the Tables, “Intensity” indicated in the rightmost column is a value of the level of expressed mRNA of each gene in control cells as divided by the average level of the expressions of the whole genes. A gene of which mRNA level is lower in control, and is higher in cases of addition of chemical substance, is especially useful in the detection of toxic substances.
Here, when a ratio of an amount of mRNA expressed in the presence of the chemical substance to an amount of mRNA expressed in the absence of the chemical substance is two or more, then it is considered significant.

CN(C)C(=S)SSC(=S)N(C)C [(10), Tetramethylthiuram disulfide]
The level of expressed mRNA in the presence of chemical substance/The level of expressed mRNA in the absence of chemical substance (yeast gene YJL152W, cultured two hours with substance): 1.0
The level of expressed mRNA in the presence of chemical substance/The level of expressed mRNA in the absence of chemical substance (yeast gene YJL161W, cultured two hours with substance): 2.1
The level of expressed mRNA in the presence of chemical substance/The level of expressed mRNA in the absence of chemical substance (yeast gene YJL171C, cultured two hours with substance): 1.7
The level of expressed mRNA in the presence of chemical substance/The level of expressed mRNA in the absence of chemical substance (yeast gene YJL186W, cultured two hours with substance): 0.5
The level of expressed mRNA in the presence of chemical substance/The level of expressed mRNA in the absence of chemical substance (yeast gene YJR008W, cultured two hours with substance): 1.9
The level of expressed mRNA in the presence of chemical substance/The level of expressed mRNA in the absence of chemical substance (yeast gene YJR010W): 11.1
The level of expressed mRNA in the presence of chemical substance/The level of expressed mRNA in the absence of chemical substance (yeast gene YJR054W, cultured two hours with substance): 0.6
The level of expressed mRNA in the presence of chemical substance/The level of expressed mRNA in the absence of chemical substance (yeast gene YJR155W): 18.8
The level of expressed mRNA in the presence of chemical substance/The level of expressed mRNA in the absence of chemical substance (yeast gene YJR155W, cultured for two hours with substance): 18.8
The level of expressed mRNA in the presence of chemical substance/The level of expressed mRNA in the absence of chemical substance (yeast gene YKL070W): 11.0
The level of expressed mRNA in the presence of chemical substance/The level of expressed mRNA in the absence of chemical substance (yeast gene YKL071W, cultured two hours with substance): 109.2
The level of expressed mRNA in the presence of chemical substance/The level of expressed mRNA in the absence of chemical substance (yeast gene YKL086W, cultured two hours with substance): 20.5
The level of expressed mRNA in the presence of chemical substance/The level of expressed mRNA in the absence of chemical substance (yeast gene YKL151C, cultured two hours with substance): 3.5
The level of expressed mRNA in the presence of chemical substance/The level of expressed mRNA in the absence of chemical substance (yeast gene YKL153W, cultured two hours with substance): 1.4
The level of expressed mRNA in the presence of chemical substance/The level of expressed mRNA in the absence of chemical substance (yeast gene YKL195W, cultured two hours with substance): 2.1
The level of expressed mRNA in the presence of chemical substance/The level of expressed mRNA in the absence of chemical substance (yeast gene YKR076W): 43.1
The level of expressed mRNA in the presence of chemical substance/The level of expressed mRNA in the absence of chemical substance (yeast gene YKR091W, cultured two hours with substance): 1.6
The level of expressed mRNA in the presence of chemical substance/The level of expressed mRNA in the absence of chemical substance (yeast gene YLL060C (detoxification protein gene)): 23.2
The level of expressed mRNA in the presence of chemical substance/The level of expressed mRNA in the absence of chemical substance (yeast gene YLL060C (stress protein genes)): 23.2
The level of expressed mRNA in the presence of chemical substance/The level of expressed mRNA in the absence of chemical substance (yeast gene YLR054C, cultured two hours with substance): 1.1
The level of expressed mRNA in the presence of chemical substance/The level of expressed mRNA in the absence of chemical substance (yeast gene YLR108C): 10.4
The level of expressed mRNA in the presence of chemical substance/The level of expressed mRNA in the absence of chemical substance (yeast gene YLR149C, cultured two hours with substance): 5.2
The level of expressed mRNA in the presence of chemical substance/The level of expressed mRNA in the absence of chemical substance (yeast gene YLR152C, cultured two hours with substance): 1.1
The level of expressed mRNA in the presence of chemical substance/The level of expressed mRNA in the absence of chemical substance (yeast gene YLR194C, cultured two hours with substance): 1.1
The level of expressed mRNA in the presence of chemical substance/The level of expressed mRNA in the absence of chemical substance (yeast gene YLR217W, cultured two hours with substance): 8.2
The level of expressed mRNA in the presence of chemical substance/The level of expressed mRNA in the absence of chemical substance (yeast gene YLR324W, cultured two hours with substance): 1.4
The level of expressed mRNA in the presence of chemical substance/The level of expressed mRNA in the absence of chemical substance (yeast gene YLR350W, cultured two hours with substance): 1.4
The level of expressed mRNA in the presence of chemical substance/The level of expressed mRNA in the absence of chemical substance (yeast gene YLR387C, cultured two hours with substance): 3.0
The level of expressed mRNA in the presence of chemical substance/The level of expressed mRNA in the absence of chemical substance (yeast gene YLR460C, cultured two hours with substance): 31.6
The level of expressed mRNA in the presence of chemical substance/The level of expressed mRNA in the absence of chemical substance (yeast gene YML117W, cultured two hours with substance): 1.4
The level of expressed mRNA in the presence of chemical substance/The level of expressed mRNA in the absence of chemical substance (yeast gene YML131W): 17.7
The level of expressed mRNA in the presence of chemical substance/The level of expressed mRNA in the absence of chemical substance (yeast gene YMR009W, cultured two hours with substance): 2.2
The level of expressed mRNA in the presence of chemical substance/The level of expressed mRNA in the absence of chemical substance (yeast gene YMR034C, cultured two hours with substance): 2.7
The level of expressed mRNA in the presence of chemical substance/The level of expressed mRNA in the absence of chemical substance (yeast gene YMR067C, cultured two hours with substance): 3.5
The level of expressed mRNA in the presence of chemical substance/The level of expressed mRNA in the absence of chemical substance (yeast gene YMR090W, cultured two hours with substance): 6.1
The level of expressed mRNA in the presence of chemical substance/The level of expressed mRNA in the absence of chemical substance (yeast gene YMR095C, cultured two hours with substance): 1.4
The level of expressed mRNA in the presence of chemical substance/The level of expressed mRNA in the absence of chemical substance (yeast gene YMR097C, cultured two hours with substance): 2.1
The level of expressed mRNA in the presence of chemical substance/The level of expressed mRNA in the absence of chemical substance (yeast gene YMR102C, cultured two hours with substance): 2.6
The level of expressed mRNA in the presence of chemical substance/The level of expressed mRNA in the absence of chemical substance (yeast gene YMR107W, cultured two hours with substance): 17.1
The level of expressed mRNA in the presence of chemical substance/The level of expressed mRNA in the absence of chemical substance (yeast gene YMR140W, cultured two hours with substance): 2.3
The level of expressed mRNA in the presence of chemical substance/The level of expressed mRNA in the absence of chemical substance (yeast gene YMR180C, cultured two hours with substance): 2.2
The level of expressed mRNA in the presence of chemical substance/The level of expressed mRNA in the absence of chemical substance (yeast gene YMR184W, cultured two hours with substance): 0.9
The level of expressed mRNA in the presence of chemical substance/The level of expressed mRNA in the absence of chemical substance (yeast gene YMR191W, cultured two hours with substance): 3.5
The level of expressed mRNA in the presence of chemical substance/The level of expressed mRNA in the absence of chemical substance (yeast gene YMR251W, cultured two hours with substance): 11.6
The level of expressed mRNA in the presence of chemical substance/The level of expressed mRNA in the absence of chemical substance (yeast gene YMR295C, cultured two hours with substance): 0.8
The level of expressed mRNA in the presence of chemical substance/The level of expressed mRNA in the absence of chemical substance (yeast gene YMR316W, cultured two hours with substance): 3.0
The level of expressed mRNA in the presence of chemical substance/The level of expressed mRNA in the absence of chemical substance (yeast gene YMR322C, cultured two hours with substance): 10.3
The level of expressed mRNA in the presence of chemical substance/The level of expressed mRNA in the absence of chemical substance (yeast gene YNL044W, cultured two hours with substance): 0.8
The level of expressed mRNA in the presence of chemical substance/The level of expressed mRNA in the absence of chemical substance (yeast gene YNL074C, cultured two hours with substance): 2.0
